Data from patent US6610846B1, “Heteroaromatic glucokinase activators” (Hoffman-La Roche Inc., priority 1999, dated 2003).

Columns and labels:
C57BL/6J mice = assay: Glucokinase activator in vivo screen (blood glucose after oral dosing); settings: administered orally, 50 mg/kg, C57BL/6J mice fasted two hours; decrease in blood glucose compared to vehicle over six hours (Example B)
Description: Glucokinase Activator In Vivo Screen Protocol
C57BL/6J mice are orally dosed via gavage with Glucokinase (GK) activator at 50 mg/kg body weight following a two hour fasting period. Blood glucose determinations are made five times during the six hour post-dose study period. Mice (n=6) are weighed and fasted for a two hour period prior to oral treatment.

| melting point | SMILES | glucokinase activator in vivo activity (C57BL/6J mice) |
| --- | --- | --- |
|  | CS(=O)(=O)c1ccc(C(CC2CCCC2)C(=O)Nc2nccs2)cc1 (stereo not shown) [Example 3(A), 3-Cyclopentyl-2-(4-methanesulfonyl-phenyl)-N-thiazol-2-yl-propionamide] | excellent glucokinase activator in vivo activity |
|  | CS(=O)(=O)c1ccc(C(CC2CCCC2)C(=O)Nc2nccs2)cc1Cl (stereo not shown) [Example 12, 2-[3-Chloro-4-methanesulfonyl-phenyl]-3-cyclopentyl-N-thiazol-2-yl-propionamide] | excellent glucokinase activator in vivo activity |
|  | CS(=O)(=O)c1ccc([C@@H](CC2CCCC2)C(=O)Nc2nccs2)cc1 [Example 13, (2R)-3-Cyclopentyl-2-(4-methanesulfonylphenyl)-N-thiazol-2-yl-propionamide] | excellent glucokinase activator in vivo activity |
|  | Cc1ccc(NC(=O)C(CC2CCCC2)c2ccc(S(=O)(=O)C(F)(F)F)cc2)nc1 (stereo not shown) [Example 43(B)(b), 3-Cyclopentyl-N-(5-methyl-pyridin-2-yl)-2-(4-trifluoromethanesulfonyl-phenyl)-propionamide] | excellent glucokinase activator in vivo activity |
|  | COC(=O)c1ccc(NC(=O)C(CC2CCCC2)c2ccc(S(=O)(=O)C(F)(F)F)cc2)nc1 (stereo not shown) [Example 43(B)(c), 6-[3-Cyclopentyl-2-(4-trifluoromethanesulfonyl-phenyl)-propionylamino]-nicotinic acid methyl ester] | excellent glucokinase activator in vivo activity |
|  | COC(=O)c1ccc(NC(=O)[C@H](CC2CCCC2)c2ccc(Cl)c(Cl)c2)nc1 [Example 45, 6-[3-Cyclopentyl-2(R)-(3,4-dichloro-phenyl)-propionylamino]-nicotinic acid methyl ester] | excellent glucokinase activator in vivo activity |
|  | O=C(Nc1ccc(Cl)cn1)[C@H](CC1CCCC1)c1ccc(Cl)c(Cl)c1 [Example 54(A), N-(5-Chloro-pyridin-2-yl)-3-cyclopentyl-2(R)-(3,4-dichloro-phenyl)-propionamide] | excellent glucokinase activator in vivo activity |
|  | O=C(Nc1ccccn1)[C@H](CC1CCCC1)c1ccc(Cl)c(Cl)c1 [Example 54(B)(a), 3-Cyclopentyl-2(R)-(3,4-dichloro-phenyl)-N-pyridin-2-yl-propionamide] | excellent glucokinase activator in vivo activity |
|  | CS(=O)(=O)c1ccc(C(CC2CCCC2)C(=O)Nc2ccccn2)cc1Cl (stereo not shown) [Example 92, 2-(3-Chloro-4-methanesulfonyl-phenyl)-3-cyclopentyl-N-pyridin-2-yl-propionamide] | excellent glucokinase activator in vivo activity |
|  | CS(=O)(=O)c1ccc(C(CC2CCCC2)C(=O)Nc2ccc(Br)cn2)cc1Cl (stereo not shown) [Example 93, N-(5-Bromo-pyridin-2-yl)-2-(3-chloro-4-methanesulfonyl-phenyl)-3-cyclopentyl-propionamide] | excellent glucokinase activator in vivo activity |
|  | CS(=O)(=O)c1ccc([C@@H](CC2CCCC2)C(=O)Nc2ccc(Br)cn2)cc1Cl [Example 99, N-(5-Bromo-pyridin-2-yl)-2(R)-(3-chloro-4-methanesulfonyl-phenyl)-3-cyclopentyl-propionamide] | excellent glucokinase activator in vivo activity |
|  | O=C(Nc1ccc(CO)cn1)[C@H](CC1CCCC1)c1ccc(Cl)c(Cl)c1 [Example 106, 3-Cyclopentyl-2(R)-(3,4-dichloro-phenyl)-N-(5-hydroxymethyl-pyridin-2-yl)propionamide] | excellent glucokinase activator in vivo activity |
|  | CS(=O)(=O)c1ccc([C@@H](CC2CCCC2)C(=O)Nc2ncc(Br)s2)cc1 [Example 133, N-(5-Bromo-thiazol-2-yl)-3-cyclopentyl-2(R)-(4-methanesulfonyl-phenyl)-propionamide] | excellent glucokinase activator in vivo activity |
| 155 to 160 °C | CS(=O)(=O)c1ccc(C(CC2CCCC2)C(=O)Nc2ncc(C(N)=O)s2)cc1 (stereo not shown) [Example 134, 2-[3-Cyclopentyl-2-(4-methanesulfonyl-phenyl)-propionylamino]-thiazole-5-carboxylic acid amide] |  |
| 76 to 79 °C | CS(=O)(=O)c1ccc(C(CC2CCCC2)C(=O)Nc2ccccn2)cc1F (stereo not shown) [Example 136, 3-Cyclopentyl-2-(3-fluoro-4-methanesulfonyl-phenyl)-N-pyridin-2-yl-propionamide] |  |
|  | Cc1csc(NC(=O)[C@H](CC2CCCC2)c2ccc(S(C)(=O)=O)c(Cl)c2)n1 [Example 139, 2(R)-(3-Chloro-4-methanesulfonyl-phenyl)-3-cyclopentyl-N-(4-methyl-thiazol-2-yl)-propionamide] | excellent glucokinase activator in vivo activity |
|  | Cc1ccc(NC(=O)[C@H](CC2CCCC2)c2ccc(S(C)(=O)=O)c(Cl)c2)nc1 [Example 140, 2(R)-(3-Chloro-4-methanesulfonyl-phenyl)-3-cyclopentyl-N-(5-methyl-pyridin-2-yl)-propionamide] | excellent glucokinase activator in vivo activity |

| melting point | SMILES | glucokinase activator in vivo activity (C57BL/6J mice) |
| --- | --- | --- |
| > 200 °C | CS(=O)(=O)c1ccc([C@@H](CC2CCCC2)C(=O)Nc2cc[nH]c(=O)n2)cc1Cl [Example 145, 2(R)-(3-Chloro-4-methanesulfonyl-phenyl)-3-cyclopentyl-N-(2-oxo-1,2-dihydro-pyrimidin-4-yl)-propionamide] |  |
| 75 to 80 °C | CS(=O)(=O)c1ccc(C(CC2CCCC2)C(=O)Nc2ccncn2)cc1Br (stereo not shown) [Example 148(A), 2-(3-Bromo-4-methanesulfonyl-phenyl)-3-cyclopentyl-N-pyrimidin-4-yl-propionamide] |  |
| > 210 °C (dec.) | CS(=O)(=O)c1ccc(C(CC2CCCC2)C(=O)Nc2ncc[nH]2)cc1Br (stereo not shown) [Example 150, 2-(3-Bromo-4-methanesulfonyl-phenyl)-3-cyclopentyl-N-(1 H-imidazol-2-yl)-propionamide] |  |
| 79 to 84 °C | CS(=O)(=O)c1ccc(C(CC2CCCC2)C(=O)Nc2ccncn2)cc1C#N (stereo not shown) [Example 151, 2-(3-Cyano-4-methanesulfonyl-phenyl)-3-cyclopentyl-N-pyrimidin-4-yl-propionamide] |  |
| 89 to 94 °C | Cc1nccc(NC(=O)C(CC2CCCC2)c2ccc(S(C)(=O)=O)c(C#N)c2)n1 (stereo not shown) [Example 152, 2-(3-Cyano-4-methanesulfonyl-phenyl)-3-cyclopentyl-N-(2-methyl-pyrimidin-4-yl)-propionamide] |  |
| 88 to 93 °C | CS(=O)(=O)c1ccc(C(CC2CCCC2)C(=O)Nc2cnccn2)cc1C#N (stereo not shown) [Example 153, 2-(3-Cyano-4-methanesulfonyl-phenyl)-3-cyclopentyl-N-pyrazin-2-yl-propionamide] |  |
| 109 to 110 °C | CSc1ccc(C(CC2CCCC2)C(=O)Nc2ccc([N+](=O)[O-])cn2)cc1C(F)(F)F (stereo not shown) [Example 154(A), 3-Cyclopentyl-2-(4-methylsulfanyl-3-trifluoromethyl-phenyl)-N-(5-nitro-pyridin-2-yl)-propionamide] |  |
| 236 to 238 °C | CS(=O)(=O)c1ccc(C(CC2CCCC2)C(=O)Nc2ccnc(=O)[nH]2)cc1C(F)(F)F (stereo not shown) [Example 155(A), 3-Cyclopentyl-2-(4-methanesulfonyl-3-trifluoromethyl-phenyl)-N-(2-oxo-2,3-dihydro-pyrimidin-4-yl)-propionamide] |  |
| 81 to 85 °C | CS(=O)(=O)c1ccc(C(CC2CCCC2)C(=O)Nc2ccc(Br)cn2)cc1C(F)(F)F (stereo not shown) [Example 156(A), N-(5-Bromo-pyridin-2-yl)-3-cyclopentyl-2-(4-methanesulfonyl-3-trifluoromethyl-phenyl)-propionamide] |  |
| 91 to 95 °C | CS(=O)(=O)c1ccc(C(CC2CCCC2)C(=O)Nc2ccncn2)cc1[N+](=O)[O-] (stereo not shown) [Example 158, 3-Cyclopentyl-2-(4-methanesulfonyl-3-nitro-phenyl)-N-pyrimidin-4-yl-propionamide] |  |
| 96 to 99 °C | Cc1nccc(NC(=O)C(CC2CCCC2)c2ccc(S(C)(=O)=O)c([N+](=O)[O-])c2)n1 (stereo not shown) [Example 159, 3-Cyclopentyl-2-(4-methanesulfonyl-3-nitro-phenyl)-N-(2-methyl-pyrimidin-4-yl)-propionamide] |  |
| 256 to 258 °C (dec.) | CS(=O)(=O)c1ccc(C(CC2CCCC2)C(=O)Nc2cc[nH]c(=O)n2)cc1[N+](=O)[O-] (stereo not shown) [Example 160, 3-Cyclopentyl-2-(4-methanesulfonyl-3-nitro-phenyl)-N-(2-oxo-1,2-dihydro-pyrimidin-4-yl)-propionamide] |  |
| 104 to 108 °C | CS(=O)(=O)c1ccc(C(CC2CCCC2)C(=O)Nc2cnccn2)cc1[N+](=O)[O-] (stereo not shown) [Example 161, 3-Cyclopentyl-2-(4-methanesulfonyl-3-nitro-phenyl)-N-pyrazin-2-yl-propionamide] |  |
| 243 to 244 °C | CS(=O)(=O)c1ccc(C(CC2CCCC2)C(=O)Nc2ncc[nH]2)cc1[N+](=O)[O-] (stereo not shown) [Example 162, 3-Cyclopentyl-N-(1 H-imidazol-2-yl)-2-(4-methanesulfonyl-3-nitro-phenyl)-propionamide] |  |
| 128 to 130 °C | O=C(Nc1ccc(Br)cn1)C(CC1CCCC1)c1ccc(Cl)c([N+](=O)[O-])c1 (stereo not shown) [Example 164, N-(5-Bromo-pyridin-2-yl)-2-(4-chloro-3-nitro-phenyl)-3-cyclopentyl-propionamide] |  |
| 113 to 115 °C | O=C(Nc1ccncn1)C(CC1CCCC1)c1cccc(C(F)(F)F)c1 (stereo not shown) [Example 165(A), 3-Cyclopentyl-N-pyrimidin-4-yl-2-(3-trifluoromethyl-phenyl)-propionamide] |  |
| 121 to 122 °C | O=C(Nc1ccc([N+](=O)[O-])cn1)C(CC1CCCC1)c1ccc(F)c(C(F)(F)F)c1 (stereo not shown) [Example 167(A), 3-Cyclopentyl-2-(4-fluoro-3-trifluoromethyl-phenyl)-N-(5-nitro-pyridin-2-yl)-propionamide] |  |
